# Patent publication US20100298402A1, “STILBENE DERIVATIVES AS PSTAT3/IL-6 INHIBITORS” (ORCHID RESEARCH LABORATORIES LIMITED, priority 2007, published 2010)
# Assays:
# Format in all cases: cell-based
# [1] = test system: pSTAT3 in HEPG2 (liver cancer) cells induced by IL-6; experiment: Inhibition of pSTAT3 (IL-6 induced phosphorylation of STAT3, Phospho-STAT3 (Tyr705) Sandwich ELISA); details: Homo sapiens, 4 hours compound, then IL-6 (10 ng/mL) 30 minutes
# Description: The experimental drugs were tested for their effect on phosphorylation of STAT3 in HEPG2 (liver cancer) cells induced by IL-6. Test compounds were dissolved in DMSO at 20 mM and diluted in a growth medium at 2× strength. Final DMSO concentration was less than 0.5%. 100 μL of cell suspension (10×10^4 cells/mL) was added to the wells of 96 well plates and allowed to adhere for 24 hours in a CO2 incubator at 37° C. Following overnight incubation, the culture medium was replaced with 100 μL of fresh growth medium and 100 μL of test compound (s), standard (Curcumin) and growth medium (untreated) wells. The plates were incubated in CO2 incubator at 37° C. for 4 hours. After compound treatment, IL-6 (10 ng/mL) was added to the wells and incubated for 30 minutes to induce pSTAT3.
# At the end of the 30 minutes incubation, cells were rinsed with ice-cold PBS and lysed with 1× Cell lysis buffer containing 1 mM PMSF (provided in the kit) on ice for 5 minutes. The cells were scraped off and transferred to an appropriate tube, sonicated on ice and centrifuged for 10 minutes at 4° C. The supernatant (cell lysate) was collected and stored at −80° C. and the levels of pSTAT3 were measured in the cell lysate by Path Scan Phospho-STAT3 (Tyr705) Sandwich ELISA kit (Cell Signaling, Cat No. 7300) by following the kit instructions.
# [2] = test system: HCT 116 (colon), NCIH460 (lung) and U251 (glioma) cell lines; experiment: Anti-cancer screen (MTT growth inhibition, 48 hours); details: Homo sapiens; HCT 116, NCIH460 and U251 cell lines; MTT after 48 hours of incubation;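 also: mean GI50 across the three cell lines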
# Description: The experimental drugs were screened for anti-cancer activity in three cell lines using five concentrations for each compound. The cell lines—HCT 116 (colon), NCIH460 (lung) and U251 (glioma) were maintained in DMEM containing 10% fetal bovine serum. 96-well microtiter plates are inoculated with cells in 100 μL of cell suspension (5×10^4 cells/mL) for 24 hours at 37° C., 5% CO2, 95% air and 100% relative humidity. A separate plate with these cell lines is also inoculated to determine cell viability before the addition of the compounds (T0)
# Following 24-hour incubation, test compounds were added to the 96 well plates. Each plate contains one of the above cell lines and the following samples in triplicate: five different dilutions (0.01, 0.1, 1, 10 and 100 μM) of four test compounds, appropriate dilutions of a cytotoxic standard and growth medium (untreated) wells. Test compounds were dissolved in DMSO to prepare 20 mM stock solutions on the day of drug addition and serial dilutions were carried out in complete growth medium at 2× strength, such that 100 μL added to the wells gave final concentrations (0.01, 0.1, 1, 10 and 100 μM) in the well. SAHA was used as the standard drug in these experiments.
# For T0 measurement, 24 hours after seeding the cells, 20 μL of 3-(4,5-dimethyl-2-thiazolyl)-2,5-diphenyl-2H-tetrazolium (MTT) solution per well was added to the ‘T0’ plate and incubated for 3 hours at 37° C. in a CO2 incubator. The plate containing cells and test compounds was treated similarly after 48 hours of incubation. After 3 hours of MTT addition, well contents were aspirated carefully followed by addition of 150 μL DMSO per well. Plates were agitated to ensure dissolution of the formazan crystals in DMSO and absorbance was read at 570 nm (A570).
# Percent growth (PG) is calculated relative to the control and zero measurement wells (T0) as follows:
# PG values are plotted against drug concentration to derive the following: GI50 is the concentration required to decrease PG by 50% vs control; TGI is the concentration required to decrease PG by 100% vs control and LC50 is the concentration required to decrease PG by 50% vs T0. (Mosmann T. Rapid colorimetric assay for cellular growth and survival: application to proliferation and cytotoxicity assays. (J. Immunol. Methods. 1983, 65 (1-2), 55-63; Anne Monks et al); feasibility of high-flux anticancer drug screen using a diverse panel of cultured human tumor cell lines”. (JNCI, Vol. 83, No. 11, 1991). Results for growth inhibition of synthesized compounds are given in Table-1.
# [3] = test system: IL-6 in supernatant of NCIH 460 cells; experiment: Measuring IL-6 in culture supernatants (ELISA); details: Homo sapiens, NCI-H460, 5 hours incubation
Compound,GI50 [2] [µM],inhibition at 10 µM [1] [%],inhibition at 10 µM [3] [%]
"COC(=O)/C(=C/c1ccc(OCC(O)CNCc2ccc(OC)cc2OC)cc1)c1ccccc1F (centres unmarked) [Example 53, 3-{4-[3-(2,4-Dimethoxybenzylamino)-2-hydroxypropoxy]phenyl}-2-(2-fluorophenyl)acrylic acid methyl ester]",,61.4,
"COC(=O)/C(=C/c1ccc(OCC(O)CNCCOc2ccccc2OC)cc1)c1ccc(C)cc1 (centres unmarked) [Example 38, 3-{4-[3-(2-Methoxyphenoxyethylamino)-2-hydroxypropoxy]phenyl}-2-(4-methylphenyl)acrylic acid methyl ester]",9,77.2,69.1
"COC(=O)/C(=C/c1ccc(OCC(O)CNCCOc2ccccc2OC)cc1)c1cccc(F)c1 (centres unmarked) [Example 51, 3-{4-[3-(2-Methoxyphenoxyethylamino)-2-hydroxypropoxy]phenyl}-2-(3-fluorophenyl)acrylic acid methyl ester]",,49.9,
"COC(=O)/C(=C/c1ccc(C)s1)c1ccc(OCC(O)CNCc2ccc(OC)cc2OC)cc1 (centres unmarked) [Example 56, 2-{4-[3-(2,4-Dimethoxybenzylamino)-2-hydroxypropoxy]phenyl}-3-(5-methylthiophen-2-yl)acrylic acid methyl ester]",,56.2,
"COC(=O)/C(=C/c1ccc(F)c(C)c1)c1ccc(OCC(O)CNCc2ccc(OC)cc2OC)cc1 (centres unmarked) [Example 1, 2-{4-[3-(2,4-dimethoxybenzylamino)-2-hydroxypropoxy]phenyl}-3-(4-fluoro-3-methylphenyl)acrylic acid methyl ester]",,22.2,
"COC(=O)/C(=C/c1ccccc1OCC(O)CNCc1ccccc1)c1ccc(OC)cc1 (centres unmarked) [Example 43, 3-{2-[3-(Benzylamino)-2-hydroxypropoxy]phenyl}-2-(4-methoxyphenyl)acrylic acid methyl ester]",0.86,46.4,9.6
"COC(=O)/C(=C/c1ccc(C)s1)c1ccc(OCC(O)CNCCOc2ccccc2OC)cc1 (centres unmarked) [Example 57, 2-{4-[3-(2-Methoxyphenoxyethylamino)-2-hydroxypropoxy]phenyl}-3-(5-methylthiophen-2-yl)acrylic acid methyl ester]",,66.5,
"COc1ccc(CNCC(O)COc2ccc(/C(=C\c3ccc(F)c(F)c3)C(N)=O)cc2)c(OC)c1 (centres unmarked) [Example 64, 2-{4-[3-(2,4-Dimethoxybenzylamino)-2-hydroxypropoxy]phenyl}-3-(3,4-difluorophenyl)acrylamide]",,32.2,
"COc1ccccc1OCCNCC(O)COc1ccc(/C(=C\c2ccc(F)c(F)c2)C(N)=O)cc1 (centres unmarked) [Example 65, 2-{4-[3-(2-Methoxyphenoxyethylamino)-2-hydroxypropoxy]phenyl}-3-(3,4-difluorophenyl)acrylamide]",,0,
"COC(=O)/C(=C/c1ccc(OCC(O)CNCCOc2ccccc2OC)cc1)c1ccc(F)cc1 (centres unmarked) [Example 41, 3-{4-[3-(2-Methoxyphenoxyethylamino)-2-hydroxypropoxy]phenyl}-2-(4-fluorophenyl)acrylic acid methyl ester]",11.4,,68

# The next lines start with results.
GI50 [2] [µM],Compound,inhibition at 10 µM [1] [%],inhibition at 10 µM [3] [%]
5.1,"COC(=O)/C(=C/c1ccc(OCC(O)CNCc2ccc(OC)cc2OC)cc1)c1ccc(F)cc1 (centres unmarked) [Example 35, 3-{4-[3-(2,4-Dimethoxybenzylamino)-2-hydroxypropoxy]phenyl}-2-(4-fluorophenyl)acrylic acid methyl ester]",32.7,72.7
9.7,"COC(=O)/C(=C/c1ccc(OCC(O)CNCc2ccc(OC)cc2OC)cc1)c1cccs1 (centres unmarked) [Example 40, 3-{4-[3-(2,4-Dimethoxybenzylamino)-2-hydroxypropoxy]phenyl}-2-(thiophen-2-yl)acrylic acid methyl ester]",71,70.5
6.2,"COC(=O)/C(=C/c1ccc(OCC(O)CNCc2ccc(OC)cc2OC)cc1)c1ccc(C)cc1 (centres unmarked) [Example 37, 3-{4-[3-(2,4-Dimethoxybenzylamino)-2-hydroxypropoxy]phenyl}-2-(4-methylphenyl)acrylic acid methyl ester]",42,68.1
2.1,"COC(=O)/C(=C/c1ccc(OCC(O)CNCc2ccccc2)cc1)c1cccc(Cl)c1 (centres unmarked) [Example 49, 3-{4-[3-(Benzylamino)-2-hydroxypropoxy]phenyl}-2-(3-chlorophenyl)acrylic acid methyl ester]",58.4,56
3.1,"COC(=O)/C(=C/c1ccc(OCC(O)CNCc2ccc(OC)cc2OC)cc1)c1ccccc1 (centres unmarked) [Example 16, 3-{4-[3-(2,4-Dimethoxybenzylamino)-2-hydroxypropoxyl]phenyl}-2-phenyl acrylic acid methyl ester]",,68
